Values after ≈ are worked out from the molar mass of the structure shown.
Experiments:
C. albicans (ATCC 24433) = test: Anticandidal broth microdilution (EUCAST EDef 7.1), resazurin fluorometric readout; assay type: cell-based; conditions: Candida albicans, ATCC24433; ATCC 24433, RPMI pH 7, 24 h incubation
Description: (§1) Synthesized compounds (5a-5ad) were evaluated for anticandidal activity against C. albicans (ATCC 24433), C. krusei (ATCC 6258), C. parapsilosis (ATCC 22019) and C. [NT] 90030). MIC50 values were evaluated via fluorometric measurements, using resazurin solution [56, 57]. […] [NT] 90030). MIC readings were carried out twice for each chemical agent. The yeasts were maintained in RPMI after overnight incubation at 37 °C. The inocula of test microorganisms adjusted to match the turbidity of a MacFarland 0.5 standard tube as determined with a spectrophotometer and the final inoculum size was 0.5-2.5 × 10^5 cfu/mL for antifungal assay. Testing was carried out in RPMI at pH = 7 and the two-fold serial dilutions technique was applied. The last well on the microplates containing only inoculated broth was kept as controls and the last well with no growth of microorganism was recorded to represent the MIC50 expressed in μg/mL. For the antifungal assays, the compounds were dissolved in DMSO. […] The completed plates were incubated for 24 h. At the end of the incubation, resazurin (20 μg/mL) was added into each well to control whether the growth in wells. Then, plates were allowed to incubate for 2 h. MIC50 values were determined using a microplate reader at […].

C. glabrata (ATCC 90030) = test: as above; assay type: cell-based; conditions: Nakaseomyces glabratus, ATCC90030; ATCC 90030, RPMI pH 7, 24 h incubation
Description: as §1

C. krusei (ATCC 6258) = test: as above; assay type: cell-based; conditions: Pichia kudriavzevii, ATCC6258; ATCC 6258, RPMI pH 7, 24 h incubation
Description: as §1

[1] = tested on: C. parapsilosis (ATCC 22019); test: as above; assay type: cell-based; conditions: Lodderomyces parapsilosis, ATCC22019; ATCC 22019, RPMI pH 7, 24 h incubation; read-out: MIC50 C. parapsilopsis
Description: as §1

Candida species = test: Anticandidal broth microdilution, results summarised over all strains; assay type: cell-based; conditions: summary over all four Candida strains
Description: as §1

| Structure (SMILES) | MIC50 (C. albicans (ATCC 24433)) [µg/mL] | MIC50 (C. glabrata (ATCC 90030)) [µg/mL] | MIC50 (C. krusei (ATCC 6258)) [µg/mL] | MIC50 [1] [µg/mL] | melting point [°C] | anticandidal activity against Candida strains (in words) (Candida species) | MIC50 (Candida species; Candida, read-out: MIC50 against Candida species) [µg/mL] |
| --- | --- | --- | --- | --- | --- | --- | --- |
| Cn1c(SCC(=O)c2ccccc2)nnc1-c1ccc(-c2nc3ccccc3[nH]2)cc1 [Compound 5a, 2-((5-(4-(1H-Benzimidazol-2-yl)phenyl)-4-methyl-4H-1,2,4-triazol-3-yl)thio)-1-phenylethan-1-one] | 100 (≈ 235 µM) | 100 (≈ 235 µM) | 100 (≈ 235 µM) | 100 (≈ 235 µM) | 269.5 | – | – |
| CCn1c(SCC(=O)c2ccc(Cl)cc2)nnc1-c1ccc(-c2nc3ccc(F)cc3[nH]2)cc1 [Compound 5aa, 1-(4-Chlorophenyl)-2-((4-ethyl-5-(4-(6-fluoro-1H-benzimidazol-2-yl)phenyl)-4H-1,2,4-triazol-3-yl)thio)ethan-1-one] | 6.25 (≈ 12.7 µM) | 12.5 (≈ 25.4 µM) | 6.25 (≈ 12.7 µM) | 12.5 (≈ 25.4 µM) | 241.4 | did not show strong activity | – |
| CCn1c(SCC(=O)c2ccc(Cl)cc2Cl)nnc1-c1ccc(-c2nc3ccc(F)cc3[nH]2)cc1 [Compound 5ac, 1-(2,4-Dichlorophenyl)-2-((4-ethyl-5-(4-(6-fluoro-1H-benzimidazol-2-yl)phenyl)-4H-1,2,4-triazol-3-yl)thio)ethan-1-one] | 1.56 (≈ 2.96 µM) | 1.56 (≈ 2.96 µM) | 1.56 (≈ 2.96 µM) | 1.56 (≈ 2.96 µM) | 223.3 | – | 1.56 to 3.12 (≈ 2.96 to 5.93 µM) |
| Cn1c(SCC(=O)c2ccc(Cl)cc2)nnc1-c1ccc(-c2nc3ccccc3[nH]2)cc1 [Compound 5b, 2-((5-(4-(1H-Benzimidazol-2-yl)phenyl)-4-methyl-4H-1,2,4-triazol-3-yl)thio)-1-(4-chlorophenyl)ethan-1-one] | 25 (≈ 54.4 µM) | 50 (≈ 109 µM) | 50 (≈ 109 µM) | 50 (≈ 109 µM) | 280.6 | – | – |
| Cn1c(SCC(=O)c2ccc(F)cc2)nnc1-c1ccc(-c2nc3ccccc3[nH]2)cc1 [Compound 5c, 2-((5-(4-(1H-Benzimidazol-2-yl)phenyl)-4-methyl-4H-1,2,4-triazol-3-yl)thio)-1-(4-fluorophenyl)ethan-1-one] | 12.5 (≈ 28.2 µM) | 25 (≈ 56.4 µM) | 25 (≈ 56.4 µM) | 12.5 (≈ 28.2 µM) | 259.8 | – | – |
| Cn1c(SCC(=O)c2ccc(Cl)cc2Cl)nnc1-c1ccc(-c2nc3ccccc3[nH]2)cc1 [Compound 5d, 2-((5-(4-(1H-Benzimidazol-2-yl)phenyl)-4-methyl-4H-1,2,4-triazol-3-yl)thio)-1-(2,4-dichlorophenyl)ethan-1-one] | 25 (≈ 50.6 µM) | 50 (≈ 101 µM) | 50 (≈ 101 µM) | 25 (≈ 50.6 µM) | 234.7 | – | – |
| Cn1c(SCC(=O)c2ccc(F)cc2F)nnc1-c1ccc(-c2nc3ccccc3[nH]2)cc1 [Compound 5e, 2-((5-(4-(1H-Benzimidazol-2-yl)phenyl)-4-methyl-4H-1,2,4-triazol-3-yl)thio)-1-(2,4-difluorophenyl)ethan-1-one] | 12.5 (≈ 27.1 µM) | 25 (≈ 54.2 µM) | 25 (≈ 54.2 µM) | 25 (≈ 54.2 µM) | 256.2 | – | – |
| CCn1c(SCC(=O)c2ccccc2)nnc1-c1ccc(-c2nc3ccccc3[nH]2)cc1 [Compound 5f, 2-((5-(4-(1H-Benzimidazol-2-yl)phenyl)-4-ethyl-4H-1,2,4-triazol-3-yl)thio)-1-phenylethan-1-one] | 100 (≈ 228 µM) | 100 (≈ 228 µM) | 100 (≈ 228 µM) | 100 (≈ 228 µM) | 220.9 | – | – |
| CCn1c(SCC(=O)c2ccc(Cl)cc2)nnc1-c1ccc(-c2nc3ccccc3[nH]2)cc1 [Compound 5g, 2-((5-(4-(1H-Benzimidazol-2-yl)phenyl)-4-ethyl-4H-1,2,4-triazol-3-yl)thio)-1-(4-chlorophenyl)ethan-1-one] | 25 (≈ 52.7 µM) | 50 (≈ 105 µM) | 25 (≈ 52.7 µM) | 50 (≈ 105 µM) | 242.6 | – | – |
| CCn1c(SCC(=O)c2ccc(F)cc2)nnc1-c1ccc(-c2nc3ccccc3[nH]2)cc1 [Compound 5h, 2-((5-(4-(1H-Benzimidazol-2-yl)phenyl)-4-ethyl-4H-1,2,4-triazol-3-yl)thio)-1-(4-fluorophenyl)ethan-1-one] | 12.5 (≈ 27.3 µM) | 25 (≈ 54.6 µM) | 12.5 (≈ 27.3 µM) | 25 (≈ 54.6 µM) | 231.3 | – | – |
| CCn1c(SCC(=O)c2ccc(Cl)cc2Cl)nnc1-c1ccc(-c2nc3ccccc3[nH]2)cc1 [Compound 5i, 2-((5-(4-(1H-Benzimidazol-2-yl)phenyl)-4-ethyl-4H-1,2,4-triazol-3-yl)thio)-1-(2,4-dichlorophenyl)ethan-1-one] | 25 (≈ 49.2 µM) | 50 (≈ 98.3 µM) | 50 (≈ 98.3 µM) | 50 (≈ 98.3 µM) | 221.7 | – | – |
| CCn1c(SCC(=O)c2ccc(F)cc2F)nnc1-c1ccc(-c2nc3ccccc3[nH]2)cc1 [Compound 5j, 2-((5-(4-(1H-Benzimidazol-2-yl)phenyl)-4-ethyl-4H-1,2,4-triazol-3-yl)thio)-1-(2,4-difluorophenyl)ethan-1-one] | 12.5 (≈ 26.3 µM) | 25 (≈ 52.6 µM) | 12.5 (≈ 26.3 µM) | 25 (≈ 52.6 µM) | 238.2 | – | – |
| Cn1c(SCC(=O)c2ccccc2)nnc1-c1ccc(-c2nc3ccc(Cl)cc3[nH]2)cc1 [Compound 5k, 2-((5-(4-(6-Chloro-1H-benzimidazol-2-yl)phenyl)-4-methyl-4H-1,2,4-triazol-3-yl)thio)-1-phenylethan-1-one] | 12.5 (≈ 27.2 µM) | 25 (≈ 54.4 µM) | 25 (≈ 54.4 µM) | 12.5 (≈ 27.2 µM) | 260 | – | – |
| Cn1c(SCC(=O)c2ccc(Cl)cc2)nnc1-c1ccc(-c2nc3ccc(Cl)cc3[nH]2)cc1 [Compound 5l, 2-((5-(4-(6-Chloro-1H-benzimidazol-2-yl)phenyl)-4-methyl-4H-1,2,4-triazol-3-yl)thio)-1-(4-chlorophenyl)ethan-1-one] | 6.25 (≈ 12.6 µM) | 12.5 (≈ 25.3 µM) | 6.25 (≈ 12.6 µM) | 12.5 (≈ 25.3 µM) | 236.9 | – | – |
| Cn1c(SCC(=O)c2ccc(Cl)cc2Cl)nnc1-c1ccc(-c2nc3ccc(F)cc3[nH]2)cc1 [Compound 5x, 1-(2,4-Dichlorophenyl)-2-((5-(4-(6-fluoro-1H-benzimidazol-2-yl)phenyl)-4-methyl-4H-1,2,4-triazol-3-yl)thio)ethan-1-one] | 3.12 (≈ 6.09 µM) | 1.56 (≈ 3.04 µM) | 3.12 (≈ 6.09 µM) | 3.12 (≈ 6.09 µM) | 228.5 | – | – |
| CCn1c(SCC(=O)c2ccccc2)nnc1-c1ccc(-c2nc3ccc(F)cc3[nH]2)cc1 [Compound 5z, 2-((4-Ethyl-5-(4-(6-fluoro-1H-benzimidazol-2-yl)phenyl)-4H-1,2,4-triazol-3-yl)thio)-1-phenylethan-1-one] | 12.5 (≈ 27.3 µM) | 25 (≈ 54.6 µM) | 50 (≈ 109 µM) | 50 (≈ 109 µM) | 253.6 | – | – |
| OC(Cn1cncn1)(Cn1cncn1)c1ccc(F)cc1F [Fluconazole, reference compound] | 0.78 (≈ 2.55 µM) | 1.56 (≈ 5.09 µM) | 1.56 (≈ 5.09 µM) | 0.78 (≈ 2.55 µM) | – | – | – |
| CC(=O)N1CCN(c2ccc(OCC3COC(Cn4ccnc4)(c4ccc(Cl)cc4Cl)O3)cc2)CC1 (stereo not drawn) [Ketoconazole, reference compound] | 0.78 (≈ 1.47 µM) | 1.56 (≈ 2.94 µM) | 1.56 (≈ 2.94 µM) | 1.56 (≈ 2.94 µM) | – | – | – |

Source: publication PMC6154534, “New Benzimidazole-1,2,4-Triazole Hybrid Compounds: Synthesis, Anticandidal Activity and Cytotoxicity Evaluation” (Molecules : A Journal of Synthetic Chemistry and Natural …, 2017)
